Assay results published in ChEMBL document CHEMBL1649182, “Binding of faropenem and other beta-lactam agents to penicillin-binding proteins of pneumococci with various beta-lactam susceptibilities” (Antimicrob Agents Chemother, 2009).
In brackets after ≈: the same amount, converted by molar mass.

Legend:
Streptococcus pneumoniae [1] = experiment: Antimicrobial activity against penicillin-intermediate Streptococcus pneumoniae 3676 by CLSI method; assay type: functional
Streptococcus pneumoniae [2] = experiment: Antimicrobial activity against penicillin-intermediate Streptococcus pneumoniae 3665 by CLSI method; assay type: functional
Streptococcus pneumoniae [3] = experiment: Antimicrobial activity against penicillin-sensitive Streptococcus pneumoniae 3009 by CLSI method; assay type: functional
Streptococcus pneumoniae [4] = experiment: Antimicrobial activity against penicillin-sensitive Streptococcus pneumoniae 1076 by CLSI method; assay type: functional
Streptococcus pneumoniae [5] = experiment: Antimicrobial activity against penicillin-sensitive Streptococcus pneumoniae 1077 by CLSI method; assay type: functional
[6] = target: T1, Penicillin-binding protein 1A (Streptococcus pneumoniae serotype 4 (strain ATCC BAA-334 / TIGR4), UniProt Q04707); experiment: Displacement of Biocillin FL from Streptococcus pneumoniae 24 PBP1A
T1 sequence (Q04707 whole entry): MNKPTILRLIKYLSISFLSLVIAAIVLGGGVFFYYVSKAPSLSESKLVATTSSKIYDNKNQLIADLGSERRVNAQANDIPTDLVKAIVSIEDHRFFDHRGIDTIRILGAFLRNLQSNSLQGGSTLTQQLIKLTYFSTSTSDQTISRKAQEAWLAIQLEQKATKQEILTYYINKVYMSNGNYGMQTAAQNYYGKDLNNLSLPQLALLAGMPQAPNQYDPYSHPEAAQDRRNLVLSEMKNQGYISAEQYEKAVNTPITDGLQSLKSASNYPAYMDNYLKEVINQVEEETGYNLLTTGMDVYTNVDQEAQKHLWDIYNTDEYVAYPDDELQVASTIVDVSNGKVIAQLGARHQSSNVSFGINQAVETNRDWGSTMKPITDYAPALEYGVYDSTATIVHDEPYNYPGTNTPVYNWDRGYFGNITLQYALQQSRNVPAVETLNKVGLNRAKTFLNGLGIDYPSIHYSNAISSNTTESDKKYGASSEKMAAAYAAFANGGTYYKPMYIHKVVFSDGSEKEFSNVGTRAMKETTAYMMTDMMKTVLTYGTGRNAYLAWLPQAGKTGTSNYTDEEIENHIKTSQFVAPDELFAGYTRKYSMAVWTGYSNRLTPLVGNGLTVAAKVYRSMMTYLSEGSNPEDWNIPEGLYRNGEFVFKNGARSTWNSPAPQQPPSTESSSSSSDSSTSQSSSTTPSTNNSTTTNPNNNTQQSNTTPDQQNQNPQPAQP

[7] = target: T1, Penicillin-binding protein 1A; experiment: Displacement of Biocillin FL from Streptococcus pneumoniae 3665 PBP1A
[8] = Displacement of Biocillin FL from Streptococcus pneumoniae 24 PBP1B
[9] = Displacement of Biocillin FL from Streptococcus pneumoniae 3413 PBP1B
[10] = target: T2, Penicillin-binding protein 2x (Streptococcus pneumoniae serotype 4 (strain ATCC BAA-334 / TIGR4), UniProt P14677); experiment: Displacement of Biocillin FL from Streptococcus pneumoniae 2527 PBP2X
T2 sequence (P14677 whole entry): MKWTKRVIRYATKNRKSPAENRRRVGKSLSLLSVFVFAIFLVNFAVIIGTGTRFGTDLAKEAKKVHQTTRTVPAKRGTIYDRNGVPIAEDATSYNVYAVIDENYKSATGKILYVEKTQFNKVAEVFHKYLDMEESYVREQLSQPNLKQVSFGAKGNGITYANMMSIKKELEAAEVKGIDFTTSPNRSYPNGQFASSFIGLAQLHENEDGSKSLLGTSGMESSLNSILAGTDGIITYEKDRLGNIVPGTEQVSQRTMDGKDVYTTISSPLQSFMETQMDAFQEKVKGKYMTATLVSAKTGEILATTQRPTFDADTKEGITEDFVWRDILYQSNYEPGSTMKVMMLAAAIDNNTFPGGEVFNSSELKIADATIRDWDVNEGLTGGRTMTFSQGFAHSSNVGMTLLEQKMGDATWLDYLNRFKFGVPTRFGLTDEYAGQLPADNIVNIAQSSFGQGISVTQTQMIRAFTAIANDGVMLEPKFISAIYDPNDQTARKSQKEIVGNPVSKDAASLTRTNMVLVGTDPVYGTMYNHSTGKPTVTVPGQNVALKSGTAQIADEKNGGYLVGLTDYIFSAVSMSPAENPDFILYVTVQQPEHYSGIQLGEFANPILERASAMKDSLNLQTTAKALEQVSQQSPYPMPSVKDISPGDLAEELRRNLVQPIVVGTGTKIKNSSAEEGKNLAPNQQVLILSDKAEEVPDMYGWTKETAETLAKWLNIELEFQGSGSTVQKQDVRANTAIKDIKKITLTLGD

[11] = target: T2, Penicillin-binding protein 2x; experiment: Displacement of Biocillin FL from Streptococcus pneumoniae 3676 PBP2X
[12] = target: T2, Penicillin-binding protein 2x; experiment: Displacement of Biocillin FL from Streptococcus pneumoniae 3665 PBP2X
[13] = target: T2, Penicillin-binding protein 2x; experiment: Displacement of Biocillin FL from Streptococcus pneumoniae 3009 PBP2X
[14] = Displacement of Biocillin FL from Streptococcus pneumoniae 2527 PBP2A
[15] = Displacement of Biocillin FL from Streptococcus pneumoniae 3676 PBP2A
[16] = Displacement of Biocillin FL from Streptococcus pneumoniae 1076 PBP2A
[17] = target: T3, Penicillin-binding protein 2B (Streptococcus pneumoniae serotype 4 (strain ATCC BAA-334 / TIGR4), UniProt P0A3M5); experiment: Displacement of Biocillin FL from Streptococcus pneumoniae 2527 PBP2B
T3 sequence (P0A3M5 whole entry): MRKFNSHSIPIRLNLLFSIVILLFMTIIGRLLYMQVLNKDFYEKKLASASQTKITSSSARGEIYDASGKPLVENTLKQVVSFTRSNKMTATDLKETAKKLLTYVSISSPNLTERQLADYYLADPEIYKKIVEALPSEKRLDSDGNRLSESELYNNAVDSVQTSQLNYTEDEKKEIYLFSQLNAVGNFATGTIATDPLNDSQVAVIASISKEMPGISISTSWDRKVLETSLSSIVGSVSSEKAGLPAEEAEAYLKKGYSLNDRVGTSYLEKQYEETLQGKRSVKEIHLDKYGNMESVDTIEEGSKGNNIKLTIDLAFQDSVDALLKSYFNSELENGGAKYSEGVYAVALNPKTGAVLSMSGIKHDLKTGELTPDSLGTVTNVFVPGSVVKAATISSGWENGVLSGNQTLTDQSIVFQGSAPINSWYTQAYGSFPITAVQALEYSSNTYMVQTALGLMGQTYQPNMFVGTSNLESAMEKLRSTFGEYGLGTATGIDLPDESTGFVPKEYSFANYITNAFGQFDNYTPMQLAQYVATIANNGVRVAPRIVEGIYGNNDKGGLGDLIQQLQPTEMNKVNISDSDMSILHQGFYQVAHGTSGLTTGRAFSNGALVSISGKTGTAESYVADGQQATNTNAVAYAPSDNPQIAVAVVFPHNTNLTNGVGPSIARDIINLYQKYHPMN

[18] = target: T3, Penicillin-binding protein 2B; experiment: Displacement of Biocillin FL from Streptococcus pneumoniae 3009 PBP2B
[19] = Displacement of Biocillin FL from Streptococcus pneumoniae 3413 PBP3
[20] = Displacement of Biocillin FL from Streptococcus pneumoniae 3676 PBP3
[21] = Displacement of Biocillin FL from Streptococcus pneumoniae 1077 PBP3

SMILES	MIC (Streptococcus pneumoniae [1])	MIC (Streptococcus pneumoniae [2])	MIC (Streptococcus pneumoniae [3])	MIC (Streptococcus pneumoniae [4])	MIC (Streptococcus pneumoniae [5])	IC50 [6]	IC50 [7]	IC50 [8]	IC50 [9]	IC50 [10]	IC50 [11]	IC50 [12]	IC50 [13]	IC50 [14]	IC50 [15]	IC50 [16]	IC50 [17]	IC50 [18]	IC50 [19]	IC50 [20]	other results
CC1(C)S[C@@H]2[C@H](NC(=O)[C@H](N)c3ccc(O)cc3)C(=O)N2[C@H]1C(=O)O [AMOXICILLIN]	0.03 µg/mL (≈ 0.0821 µM)	0.125 µg/mL (≈ 0.342 µM)	0.016 µg/mL (≈ 0.0438 µM)	0.016 µg/mL (≈ 0.0438 µM)	0.016 µg/mL (≈ 0.0438 µM)	10.9 nM	183 nM	1.103 µg/mL (≈ 3.02 µM)	0.035 µg/mL (≈ 0.0958 µM)	10.9 nM	118 nM	257 nM	21.9 nM	0.051 µg/mL (≈ 0.14 µM)	0.066 µg/mL (≈ 0.181 µM)	0.08 µg/mL (≈ 0.219 µM)	90.3 nM	137 nM	0.029 µg/mL (≈ 0.0794 µM)	0.019 µg/mL (≈ 0.052 µM)	IC50 [21]: 0.022 µg/mL (≈ 0.0602 µM)
CO/N=C(\C(=O)N[C@@H]1C(=O)N2C(C(=O)O)=C(COC(N)=O)CS[C@H]12)c1ccco1 [CEFUROXIME]	0.125 µg/mL (≈ 0.295 µM)	0.125 µg/mL (≈ 0.295 µM)	0.03 µg/mL (≈ 0.0707 µM)	0.03 µg/mL (≈ 0.0707 µM)	0.03 µg/mL (≈ 0.0707 µM)	9.43 nM	4.71 nM	0.923 µg/mL (≈ 2.17 µM)	0.032 µg/mL (≈ 0.0754 µM)	7.07 nM	47.1 nM	33 nM	0.0943 nM	0.01 µg/mL (≈ 0.0236 µM)	0.011 µg/mL (≈ 0.0259 µM)	0.004 µg/mL (≈ 0.00943 µM)	6230 nM	3900 nM	0.004 µg/mL (≈ 0.00943 µM)	0.048 µg/mL (≈ 0.113 µM)	IC50 [21]: 0.071 µg/mL (≈ 0.167 µM)
C[C@@H](O)[C@H]1C(=O)N2C(C(=O)O)=C([C@H]3CCCO3)S[C@H]12 [FAROPENEM]	0.125 µg/mL (≈ 0.438 µM)	0.125 µg/mL (≈ 0.438 µM)	0.03 µg/mL (≈ 0.105 µM)	0.03 µg/mL (≈ 0.105 µM)	0.03 µg/mL (≈ 0.105 µM)	31.5 nM	105 nM	0.06 µg/mL (≈ 0.21 µM)	0.019 µg/mL (≈ 0.0666 µM)	116 nM	59.6 nM	606 nM	214 nM	0.025 µg/mL (≈ 0.0876 µM)	0.053 µg/mL (≈ 0.186 µM)	0.035 µg/mL (≈ 0.123 µM)	35 nM	24.5 nM	0.003 µg/mL (≈ 0.0105 µM)	0.009 µg/mL (≈ 0.0315 µM)	IC50 [21]: 0.006 µg/mL (≈ 0.021 µM)
C[C@@H](O)[C@H]1C(=O)N2C(C(=O)O)=C(SCCNC=N)C[C@H]12 [IMIPENEM ANHYDROUS]	0.016 µg/mL (≈ 0.0534 µM)	0.03 µg/mL (≈ 0.1 µM)	0.008 µg/mL (≈ 0.0267 µM)	0.008 µg/mL (≈ 0.0267 µM)	0.008 µg/mL (≈ 0.0267 µM)	1470 nM	965 nM	0.71 µg/mL (≈ 2.37 µM)	0.316 µg/mL (≈ 1.06 µM)	60.1 nM	130 nM	1980 nM	334 nM	0.059 µg/mL (≈ 0.197 µM)	0.115 µg/mL (≈ 0.384 µM)	0.054 µg/mL (≈ 0.18 µM)	207 nM	154 nM	0.195 µg/mL (≈ 0.651 µM)	0.188 µg/mL (≈ 0.628 µM)	IC50 [21]: 0.219 µg/mL (≈ 0.732 µM)
CC1(C)S[C@@H]2[C@H](NC(=O)Cc3ccccc3)C(=O)N2[C@H]1C(=O)O [PENICILLIN G]	0.25 µg/mL (≈ 0.748 µM)	0.125 µg/mL (≈ 0.374 µM)	0.03 µg/mL (≈ 0.0897 µM)	0.03 µg/mL (≈ 0.0897 µM)	0.03 µg/mL (≈ 0.0897 µM)	23.9 nM	92.7 nM	0.248 µg/mL (≈ 0.742 µM)	0.205 µg/mL (≈ 0.613 µM)	26.9 nM	83.7 nM	123 nM	32.9 nM	0.023 µg/mL (≈ 0.0688 µM)	0.013 µg/mL (≈ 0.0389 µM)	0.02 µg/mL (≈ 0.0598 µM)	287 nM	20.9 nM	0.01 µg/mL (≈ 0.0299 µM)	0.007 µg/mL (≈ 0.0209 µM)	IC50 [21]: 0.01 µg/mL (≈ 0.0299 µM)
